Common to all, as to type: functional, cell-based
The subject of experiment [1] is U-251. Kind of experiment: Cytotoxicity against human U251 cells after 48 hrs by MTT assay. The following applies: U-251, 48 h. On the technique in general: Tetrazolium assays rely on reduction of a dye to a coloured formazan, in cell work by metabolically active cells.
Experiment [2] concerns HepG2. The experiment in a line: Cytotoxicity against human HepG2 cells after 48 hrs by MTT assay. Particulars: HepG2, 48 h.
Experiment [3] concerns A-431. The experiment in a line: Cytotoxicity against human A431 cells after 48 hrs by MTT assay. The following applies: A-431, 48 h.
For experiment [4], the system named is MCF7. Kind of experiment: Cytotoxicity against human MCF7 cells after 48 hrs by MTT assay. The following applies: MCF7, 48 h.
Experiment [5] relates to HEp-2. The experiment in a line: Cytotoxicity against human Hep2 cells after 48 hrs by MTT assay. Particulars: HEp-2, 48 h.
Experiment [6] deals with HeLa. The experiment in a line: Cytotoxicity against human HeLa cells after 48 hrs by MTT assay.
Experiment [7] deals with SK-OV-3. Kind of experiment: Cytotoxicity against human SKOV3 cells after 48 hrs by MTT assay. Particulars: SK-OV-3, 48 h.
Experiment [8] relates to A549. Kind of experiment: Cytotoxicity against human A549 cells after 48 hrs by MTT assay. The following applies: A549, 48 h.

Usually IC50 stands for the point on the concentration scale where inhibition reaches its midpoint. On to `COc1cc(/C=C/C(=O)/C=C(O)/C=C/c2ccc(I)c(OC)c2)ccc1I`, for which the IC50 in experiment [1], in experiment [2], in experiment [3], in experiment [4], in experiment [5] and in experiment [6] was > 100 µM throughout. The half-maximal inhibitory concentration (IC50) in experiment [7] and in experiment [8] was > 100 µM each time.

As to `COc1cc(/C=C/C(=O)/C=C(O)/C=C/c2ccc(N)c(OC)c2)ccc1N`, the IC50 was 24.5 µM in experiment [1]; > 100 µM in experiment [2]; 15.8 µM in experiment [3]; > 100 µM in experiment [4]; > 100 µM in experiment [5]; > 100 µM in experiment [6]. Besides, the half-inhibitory concentration (IC50) in experiment [7] and in experiment [8] was > 100 µM in each case.

For `COc1cc(/C=C/C(=O)/C=C(O)/C=C/c2ccc(C(N)=O)c(OC)c2)ccc1C(N)=O`, the IC50 is 7.7 µM in experiment [1]; 43.6 µM in experiment [2]; 9.4 µM in experiment [3]; 49.2 µM in experiment [4]; > 100 µM in experiment [5]; 23.8 µM in experiment [6]. For the same compound, the figures for the IC50 in experiment [7] and in experiment [8] were 38.3 µM and > 100 µM, respectively.

As for `COc1cc(/C=C/C(=O)/C=C(O)/C=C/c2ccc(-n3ccc4ccccc43)c(OC)c2)ccc1-n1ccc2ccccc21`, the IC50 in experiment [2], in experiment [3], in experiment [4], in experiment [5], in experiment [6] and in experiment [7] was > 100 µM throughout. Further, in experiment [8], the IC50 was > 100 µM.

As for `COc1cc(/C=C/C(=O)/C=C(O)/C=C/c2ccc(-n3ccnc3)c(OC)c2)ccc1-n1ccnc1`, the IC50 in experiment [1] was 22 µM; in experiment [2], 82.5 µM; in experiment [3], 16.8 µM; in experiment [4], > 100 µM; in experiment [5], > 100 µM; in experiment [6], 45.4 µM. The values for the IC50 in experiment [7] and in experiment [8] were 66.9 µM and > 100 µM, respectively.

Take `COc1cc(/C=C/C(=O)/C=C(O)/C=C/c2ccc(Br)c(OC)c2)ccc1Br`: the IC50 in experiment [1] was 84.8 µM; in experiment [2], > 100 µM; in experiment [3], 55.9 µM; in experiment [4], > 100 µM; in experiment [5] it was > 100 µM; in experiment [6], > 100 µM. The IC50 in experiment [7] and in experiment [8] was > 100 µM each time.

Regarding `COc1cc(/C=C/C(=O)/C=C(O)/C=C/c2ccc(NC(C)=O)c(OC)c2)ccc1NC(C)=O`, the concentration for half-maximal inhibition (IC50) in experiment [1] is 7.1 µM; in experiment [2] it was 71.6 µM; in experiment [3], 7.2 µM; in experiment [4], > 100 µM; in experiment [5] it was > 100 µM; in experiment [6], 37.1 µM. Moreover, the figures for the IC50 in experiment [7] and in experiment [8] were 55.5 µM and > 100 µM, respectively.

Consider `COc1cc(/C=C/C(=O)/C=C(O)/C=C/c2ccc(-n3cccn3)c(OC)c2)ccc1-n1cccn1`, for which the IC50 in experiment [2], in experiment [3], in experiment [4], in experiment [5], in experiment [6] and in experiment [7] was > 100 µM throughout. Besides, the IC50 in experiment [8] was > 100 µM.

On to `COc1cc(/C=C/C(=O)CC(=O)/C=C/c2ccc(O)c(OC)c2)ccc1O` [CURCUMIN], for which the IC50 in experiment [1] stood at 13.8 µM; in experiment [2] it was 31.6 µM; in experiment [3] it was 13.8 µM; in experiment [5], 56.9 µM; in experiment [6] it was 27.4 µM; in experiment [7], 37.7 µM. In addition, in experiment [8], half-maximal inhibition (IC50) required 42.6 µM.

In the case of `CNc1ccc(/C=C/C(=O)/C=C(O)/C=C/c2ccc(NC)c(OC)c2)cc1OC`, the 50% inhibitory concentration (IC50) in experiment [1], in experiment [2], in experiment [3], in experiment [4], in experiment [5] and in experiment [6] was > 100 µM throughout. The IC50 in experiment [7] and in experiment [8] was > 100 µM throughout.

In the case of `COc1cc(/C=C/C(=O)/C=C(O)/C=C/c2ccc(-n3cnc4ccccc43)c(OC)c2)ccc1-n1cnc2ccccc21`, the IC50 in experiment [2], in experiment [3], in experiment [4], in experiment [5], in experiment [6] and in experiment [7] was > 100 µM each time. Besides, the IC50 in experiment [8] is > 100 µM.

(Values after ChEMBL document CHEMBL1667783 (Bioorg Med Chem Lett, 2011).)
